Measurements taken from ChEMBL document CHEMBL1212923, “Synthesis and in vivo evaluation of phenethylpiperazine amides: selective 5-hydroxytryptamine(2A) receptor antagonists for the treatment of insomnia” (J Med Chem, 2010).
pIC50, pKi: −log10 of the molar value. Activity calls are given as the source filed them. The calls are words filed in the database; no cut-off is given here.

Legend:
[1] = target: T1, 5-hydroxytryptamine receptor 2C (Homo sapiens, UniProt P28335); type: cell-based, HEK293
T1 sequence (P28335 whole entry): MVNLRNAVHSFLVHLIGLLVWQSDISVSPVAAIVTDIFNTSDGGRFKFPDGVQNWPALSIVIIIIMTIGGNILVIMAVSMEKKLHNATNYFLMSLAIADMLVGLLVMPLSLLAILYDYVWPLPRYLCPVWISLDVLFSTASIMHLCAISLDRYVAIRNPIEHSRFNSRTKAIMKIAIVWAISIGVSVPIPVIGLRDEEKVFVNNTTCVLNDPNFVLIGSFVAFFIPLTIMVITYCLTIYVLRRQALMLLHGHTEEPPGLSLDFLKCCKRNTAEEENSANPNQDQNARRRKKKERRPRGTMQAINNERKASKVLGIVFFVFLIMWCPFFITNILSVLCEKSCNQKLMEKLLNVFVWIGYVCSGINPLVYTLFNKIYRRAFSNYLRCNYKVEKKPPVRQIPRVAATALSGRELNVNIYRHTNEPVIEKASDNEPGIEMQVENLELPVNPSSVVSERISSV

[2] = Cmax in Sprague-Dawley rat at 10 mg/kg, po; type: ADME, organism-based; parameters: dose 10 mg/kg, route oral; details: in vivo
[3] = AUClast in Sprague-Dawley rat at 10 mg/kg, po; type: ADME, organism-based; parameters: time 0 - last, dose 10 mg/kg, route oral; details: plasma
[4] = Total clearance in Sprague-Dawley rat at 2 mg/kg, iv; type: ADME, organism-based; parameters: dose 2 mg/kg, route intravenous; details: in vivo
[5] = Drug level in Sprague-Dawley rat brain at 0.3 mg/kg, po after 0.75 hrs; type: ADME, organism-based; parameters: dose 0.3 mg/kg, route oral; details: read-out: Drug uptake
[6] = Drug level in Sprague-Dawley rat plasma at 0.3 mg/kg, po after 0.75 hrs; type: ADME, organism-based; parameters: dose 0.3 mg/kg, route oral; details: read-out: Drug uptake
[7] = Ratio of drug level in brain to plasma in Sprague-Dawley rat at 3 mg/kg, po after 0.75 hrs; type: ADME, organism-based; parameters: dose 3 mg/kg, route oral
[8] = Ratio of drug level in brain to plasma in Sprague-Dawley rat at 0.3 mg/kg, po after 0.75 hrs; type: ADME, organism-based; parameters: dose 0.3 mg/kg, route oral
[9] = test system: Rattus norvegicus; assay: Inhibition of DOI-induced hypolocomotion in Sprague-Dawley rat at 0.3 mg/kg, po administered 25 mins before DOI challenge measured after 10 mins; type: functional, organism-based; parameters: dose 0.3 mg/kg
[10] = target: T2, Cytochrome P450 1A2 (Homo sapiens, UniProt P05177); assay: Inhibition of CYP1A2 in human liver microsomes; type: ADME, Microsome
T2 sequence (P05177 whole entry): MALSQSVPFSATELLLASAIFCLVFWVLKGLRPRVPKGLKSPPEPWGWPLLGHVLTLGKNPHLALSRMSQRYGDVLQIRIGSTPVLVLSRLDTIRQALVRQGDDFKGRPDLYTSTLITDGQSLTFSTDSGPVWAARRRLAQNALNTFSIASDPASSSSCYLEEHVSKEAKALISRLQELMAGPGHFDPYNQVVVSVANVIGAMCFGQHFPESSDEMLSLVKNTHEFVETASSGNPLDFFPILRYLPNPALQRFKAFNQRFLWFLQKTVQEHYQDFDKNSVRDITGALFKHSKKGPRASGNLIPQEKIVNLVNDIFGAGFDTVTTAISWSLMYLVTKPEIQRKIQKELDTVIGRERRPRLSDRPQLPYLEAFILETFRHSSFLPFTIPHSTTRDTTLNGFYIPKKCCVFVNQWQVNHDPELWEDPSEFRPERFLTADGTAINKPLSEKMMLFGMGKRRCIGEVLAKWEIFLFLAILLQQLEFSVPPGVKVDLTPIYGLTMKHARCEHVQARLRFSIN

[11] = target: Cytochrome P450 2C9 (Homo sapiens, UniProt P11712); assay: Inhibition of CYP2C9 in human liver microsomes; type: ADME, Microsome
[12] = target: Cytochrome P450 2C19 (Homo sapiens, UniProt P33261); assay: Inhibition of CYP2C19 in human liver microsomes; type: ADME, Microsome
[13] = target: Cytochrome P450 2D6 (Homo sapiens, UniProt P10635); assay: Inhibition of CYP2D6 in human liver microsomes; type: ADME, Microsome
[14] = target: Cytochrome P450 3A4 (Homo sapiens, UniProt P08684); assay: Inhibition of CYP3A4 in human liver microsomes; type: ADME, Microsome
[15] = test system: Rattus norvegicus; assay: Effect on behavioral activity in Sprague-Dawley rat assessed as increase in deep sleep at 0.1 mg/kg, po after 1 hr; type: functional, organism-based; parameters: dose 0.1 mg/kg
[16] = test system: Rattus norvegicus; assay: Effect on behavioral activity in Sprague-Dawley rat assessed as increase in deep sleep at 0.1 mg/kg, po after 3 to 4 hrs; type: functional, organism-based; parameters: dose 0.1 mg/kg
[17] = test system: Rattus norvegicus; assay: Effect on behavioral activity in po dosed Sprague-Dawley rat assessed as increase in sleep consolidation after 5 hrs; type: functional, organism-based
[18] = target: 5-hydroxytryptamine receptor 2A (Macaca mulatta, UniProt P50128); assay: Binding affinity to monkey 5HT2A receptor
[19] = target: 5-hydroxytryptamine receptor 2A (Canis lupus familiaris, UniProt O46635); assay: Binding affinity to dog 5HT2A receptor
[20] = target: 5-hydroxytryptamine receptor 2A (Rattus norvegicus, UniProt P14842); assay: Binding affinity to rat 5HT2A receptor
[21] = Protein binding in dog plasma; type: ADME, cell-free, Canis lupus familiaris; details: read-out: PPB (converted)
[22] = Protein binding in rat plasma; type: ADME, cell-free; details: read-out: PPB (converted)
[23] = Cmax in mouse at 3 mg/kg, po; type: ADME, organism-based; parameters: dose 3 mg/kg, route oral; details: in vivo
[24] = AUClast in mouse at 3 mg/kg, po; type: ADME, organism-based; parameters: time 0 - last, dose 3 mg/kg, route oral; details: plasma
[25] = Half life in mouse at 3 mg/kg, po; type: ADME, organism-based; parameters: dose 3 mg/kg, route oral; details: in vivo
[26] = Total clearance in mouse at 2 mg/kg, iv; type: ADME, organism-based; parameters: dose 2 mg/kg, route intravenous; details: in vivo
[27] = test system: Mus musculus; assay: Volume of distribution at steady state in mouse at 3 mg/kg, po; type: ADME, organism-based; parameters: dose 3 mg/kg, route oral; details: in vivo
[28] = Oral bioavailability in mouse at 3 mg/kg relative to 2 mg/kg, iv dose; type: ADME, organism-based; details: in vivo
[29] = Half life in Sprague-Dawley rat at 3 mg/kg, po; type: ADME, organism-based; parameters: dose 3 mg/kg, route oral; details: in vivo
[30] = test system: Rattus norvegicus; assay: Volume of distribution at steady state in Sprague-Dawley rat at 3 mg/kg, po; type: ADME, organism-based; parameters: dose 3 mg/kg, route oral; details: in vivo
[31] = Oral bioavailability in Sprague-Dawley rat at 3 mg/kg relative to 2 mg/kg, iv dose; type: ADME, organism-based; details: in vivo
[32] = Cmax in dog at 3 mg/kg, po; type: ADME, organism-based, Canis lupus familiaris; parameters: dose 3 mg/kg, route oral; details: in vivo
[33] = AUClast in dog at 3 mg/kg, po; type: ADME, organism-based, Canis lupus familiaris; parameters: dose 3 mg/kg, route oral, time 0 - last; details: plasma
[34] = Half life in dog at 3 mg/kg, po; type: ADME, organism-based, Canis lupus familiaris; parameters: dose 3 mg/kg, route oral; details: in vivo
[35] = Total clearance in dog at 2 mg/kg, iv; type: ADME, organism-based, Canis lupus familiaris; parameters: dose 2 mg/kg, route intravenous; details: in vivo
[36] = test system: Canis familiaris; assay: Volume of distribution at steady state in dog at 3 mg/kg, po; type: ADME, organism-based, Canis lupus familiaris; parameters: dose 3 mg/kg, route oral; details: in vivo
[37] = Oral bioavailability in dog at 3 mg/kg relative to 2 mg/kg, iv dose; type: ADME, organism-based, Canis lupus familiaris; details: in vivo
[38] = Cmax in monkey at 3 mg/kg, po; type: ADME, organism-based, Macaca mulatta; parameters: dose 3 mg/kg, route oral; details: rhesus monkey, in vivo
[39] = AUClast in monkey at 3 mg/kg, po; type: ADME, organism-based, Macaca mulatta; parameters: time 0 - last, dose 3 mg/kg, route oral; details: rhesus monkey, plasma
[40] = Half life in monkey at 3 mg/kg, po; type: ADME, organism-based, Macaca mulatta; parameters: dose 3 mg/kg, route oral; details: rhesus monkey, in vivo
[41] = Total clearance in monkey at 2 mg/kg, iv; type: ADME, organism-based, Macaca mulatta; parameters: dose 2 mg/kg, route intravenous; details: rhesus monkey, in vivo
[42] = test system: Rhesus monkey; assay: Volume of distribution at steady state in monkey at 3 mg/kg, po; type: ADME, organism-based, Macaca mulatta; parameters: dose 3 mg/kg, route oral; details: in vivo
[43] = Oral bioavailability in monkey at 3 mg/kg relative to 2 mg/kg, iv dose; type: ADME, organism-based, Macaca mulatta; details: rhesus monkey, in vivo
[44] = Toxicity in mouse assessed as maximum tolerated dose; type: organism-based; details: in vivo
[45] = Toxicity in rat assessed as maximum tolerated dose; type: organism-based; details: in vivo
[46] = test system: Mus musculus; assay: Toxicity in mouse assessed as reduction in locomotor activity at 300 mg/kg by rotarod test; type: organism-based; parameters: dose 300 mg/kg; details: in vivo
[47] = test system: Rattus norvegicus; assay: Toxicity in rat assessed as reduction in locomotor activity at 300 mg/kg by rotarod test; type: organism-based; parameters: dose 300 mg/kg; details: in vivo
[48] = test system: Canis familiaris; assay: Toxicity in telemeterized dog assessed as effect on hemodynamics at 10 to 30 mg/kg; type: organism-based, Canis lupus familiaris; parameters: dose 10-30 mg/kg; details: in vivo
[49] = test system: Rattus norvegicus; assay: Toxicity in telemeterized rats assessed as effect on hemodynamics at 10 to 30 mg/kg; type: organism-based; parameters: dose 10-30 mg/kg; details: in vivo
[50] = test system: Canis familiaris; assay: Cardiotoxicity in telemeterized dog assessed as change in ECG parameter at 10 to 30 mg/kg; type: toxicity, organism-based, Canis lupus familiaris; parameters: dose 10-30 mg/kg; details: in vivo
[51] = test system: Rattus norvegicus; assay: Cardiotoxicity in telemeterized rat assessed as change in ECG parameter at 10 to 30 mg/kg; type: toxicity, organism-based; parameters: dose 10-30 mg/kg; details: in vivo
[52] = target: Voltage-gated inwardly rectifying potassium channel KCNH2 (Homo sapiens, UniProt Q12809)
Description: Inhibition of human ERG by patch clamp electrophysiology assay

[53] = target: 5-hydroxytryptamine receptor 2A (Homo sapiens, UniProt P28223); assay: biochemical
Chain of 5-hydroxytryptamine receptor 2A (Homo sapiens, UniProt P28223) (P28223 whole entry): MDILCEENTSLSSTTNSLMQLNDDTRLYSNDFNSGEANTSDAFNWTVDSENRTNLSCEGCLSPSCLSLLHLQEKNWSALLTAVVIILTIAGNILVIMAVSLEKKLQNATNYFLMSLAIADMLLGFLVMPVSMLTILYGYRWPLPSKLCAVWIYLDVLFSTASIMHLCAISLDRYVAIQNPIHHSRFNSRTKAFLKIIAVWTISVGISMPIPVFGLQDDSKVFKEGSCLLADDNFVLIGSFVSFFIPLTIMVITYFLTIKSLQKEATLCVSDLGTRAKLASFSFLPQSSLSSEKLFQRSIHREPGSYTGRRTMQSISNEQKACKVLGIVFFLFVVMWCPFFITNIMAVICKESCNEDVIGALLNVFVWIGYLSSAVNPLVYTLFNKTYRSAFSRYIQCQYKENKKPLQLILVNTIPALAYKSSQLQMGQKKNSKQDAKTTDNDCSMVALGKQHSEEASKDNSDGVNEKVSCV
Description: Displacement of [125I]DOI from human recombinant 5HT2A receptor expressed in HEK293 cells after 1 hr by scintillation counting

Chain of 5-hydroxytryptamine receptor 2A (Rattus norvegicus, UniProt P14842) (P14842 whole entry): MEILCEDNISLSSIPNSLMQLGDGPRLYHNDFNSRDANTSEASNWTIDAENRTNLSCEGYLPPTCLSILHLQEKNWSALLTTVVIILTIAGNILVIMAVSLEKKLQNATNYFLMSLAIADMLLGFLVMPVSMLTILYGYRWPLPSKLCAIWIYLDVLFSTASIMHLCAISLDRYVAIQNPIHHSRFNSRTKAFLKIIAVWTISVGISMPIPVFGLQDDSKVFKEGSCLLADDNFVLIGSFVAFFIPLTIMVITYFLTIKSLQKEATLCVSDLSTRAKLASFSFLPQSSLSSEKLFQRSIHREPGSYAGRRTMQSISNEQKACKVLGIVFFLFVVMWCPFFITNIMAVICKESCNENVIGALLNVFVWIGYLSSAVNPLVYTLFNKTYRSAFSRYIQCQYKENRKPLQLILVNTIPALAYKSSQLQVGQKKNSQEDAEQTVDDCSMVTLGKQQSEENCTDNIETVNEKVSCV
Chain of Cytochrome P450 3A4 (P08684 whole entry): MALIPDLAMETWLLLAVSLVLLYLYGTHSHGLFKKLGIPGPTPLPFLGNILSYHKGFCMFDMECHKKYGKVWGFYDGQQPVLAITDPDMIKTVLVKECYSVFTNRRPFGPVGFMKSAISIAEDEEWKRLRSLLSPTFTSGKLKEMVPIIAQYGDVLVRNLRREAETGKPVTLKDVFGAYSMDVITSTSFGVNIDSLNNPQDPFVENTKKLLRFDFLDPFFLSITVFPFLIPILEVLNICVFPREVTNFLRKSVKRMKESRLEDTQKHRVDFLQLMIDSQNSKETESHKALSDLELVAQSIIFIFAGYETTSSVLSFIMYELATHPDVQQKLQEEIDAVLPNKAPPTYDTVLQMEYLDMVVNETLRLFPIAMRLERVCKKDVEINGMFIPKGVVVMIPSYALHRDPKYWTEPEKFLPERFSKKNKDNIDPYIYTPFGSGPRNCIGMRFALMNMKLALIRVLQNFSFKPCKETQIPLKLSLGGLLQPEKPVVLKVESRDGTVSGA
Chain of Cytochrome P450 2C19 (P33261 whole entry): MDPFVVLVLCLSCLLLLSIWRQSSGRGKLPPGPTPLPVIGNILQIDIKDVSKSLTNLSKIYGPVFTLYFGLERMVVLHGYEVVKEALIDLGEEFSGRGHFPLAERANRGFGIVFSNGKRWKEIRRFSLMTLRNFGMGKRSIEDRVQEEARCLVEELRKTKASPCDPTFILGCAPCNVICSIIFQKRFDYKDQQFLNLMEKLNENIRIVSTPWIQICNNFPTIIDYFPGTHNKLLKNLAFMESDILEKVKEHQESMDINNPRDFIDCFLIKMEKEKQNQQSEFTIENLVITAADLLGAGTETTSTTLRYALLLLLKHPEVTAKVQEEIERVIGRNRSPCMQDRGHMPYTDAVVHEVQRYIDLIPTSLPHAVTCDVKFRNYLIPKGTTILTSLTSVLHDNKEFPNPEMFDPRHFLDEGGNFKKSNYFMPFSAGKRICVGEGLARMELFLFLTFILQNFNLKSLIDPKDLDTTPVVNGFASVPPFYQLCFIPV
Chain of Cytochrome P450 2D6 (P10635 whole entry): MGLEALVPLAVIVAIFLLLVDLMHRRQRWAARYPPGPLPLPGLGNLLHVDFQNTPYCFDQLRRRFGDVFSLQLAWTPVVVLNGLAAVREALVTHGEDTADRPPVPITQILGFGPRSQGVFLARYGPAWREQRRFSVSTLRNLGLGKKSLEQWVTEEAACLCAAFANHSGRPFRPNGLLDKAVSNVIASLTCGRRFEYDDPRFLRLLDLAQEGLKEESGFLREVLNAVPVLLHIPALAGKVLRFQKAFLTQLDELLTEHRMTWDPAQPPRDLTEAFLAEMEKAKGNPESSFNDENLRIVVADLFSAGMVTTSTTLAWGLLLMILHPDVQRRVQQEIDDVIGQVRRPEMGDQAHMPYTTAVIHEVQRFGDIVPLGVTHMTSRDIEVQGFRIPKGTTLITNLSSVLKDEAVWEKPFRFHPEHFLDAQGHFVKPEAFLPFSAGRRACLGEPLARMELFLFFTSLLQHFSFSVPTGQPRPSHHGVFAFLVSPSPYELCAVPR
Chain of 5-hydroxytryptamine receptor 2A (Canis lupus familiaris, UniProt O46635) (O46635 whole entry): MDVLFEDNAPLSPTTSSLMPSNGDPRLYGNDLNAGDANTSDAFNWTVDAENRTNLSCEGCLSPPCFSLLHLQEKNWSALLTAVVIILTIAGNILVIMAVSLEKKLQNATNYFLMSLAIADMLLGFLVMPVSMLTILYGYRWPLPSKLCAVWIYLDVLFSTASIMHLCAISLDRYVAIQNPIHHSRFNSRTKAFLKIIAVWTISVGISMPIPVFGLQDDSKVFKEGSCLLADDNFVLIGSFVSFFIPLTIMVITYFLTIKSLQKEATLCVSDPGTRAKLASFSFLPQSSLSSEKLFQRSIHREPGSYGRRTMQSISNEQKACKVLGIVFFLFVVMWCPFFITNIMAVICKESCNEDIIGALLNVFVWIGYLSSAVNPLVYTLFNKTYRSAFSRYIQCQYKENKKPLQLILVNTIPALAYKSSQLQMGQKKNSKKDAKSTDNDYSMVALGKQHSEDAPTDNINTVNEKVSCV
Chain of Cytochrome P450 2C9 (P11712 whole entry): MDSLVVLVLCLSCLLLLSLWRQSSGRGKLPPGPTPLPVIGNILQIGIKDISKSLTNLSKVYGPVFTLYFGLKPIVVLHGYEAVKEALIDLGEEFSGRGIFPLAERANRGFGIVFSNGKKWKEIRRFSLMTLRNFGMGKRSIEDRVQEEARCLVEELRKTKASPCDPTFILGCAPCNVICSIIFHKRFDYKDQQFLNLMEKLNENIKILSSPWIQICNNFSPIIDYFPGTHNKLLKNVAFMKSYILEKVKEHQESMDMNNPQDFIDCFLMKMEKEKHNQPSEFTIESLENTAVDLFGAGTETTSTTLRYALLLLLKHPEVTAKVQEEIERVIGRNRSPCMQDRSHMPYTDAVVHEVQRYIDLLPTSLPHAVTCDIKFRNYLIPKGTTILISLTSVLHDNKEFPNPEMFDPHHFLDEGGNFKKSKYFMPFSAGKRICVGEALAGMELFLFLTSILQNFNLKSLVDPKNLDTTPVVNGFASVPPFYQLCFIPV
Chain of Voltage-gated inwardly rectifying potassium channel KCNH2 (Q12809 whole entry): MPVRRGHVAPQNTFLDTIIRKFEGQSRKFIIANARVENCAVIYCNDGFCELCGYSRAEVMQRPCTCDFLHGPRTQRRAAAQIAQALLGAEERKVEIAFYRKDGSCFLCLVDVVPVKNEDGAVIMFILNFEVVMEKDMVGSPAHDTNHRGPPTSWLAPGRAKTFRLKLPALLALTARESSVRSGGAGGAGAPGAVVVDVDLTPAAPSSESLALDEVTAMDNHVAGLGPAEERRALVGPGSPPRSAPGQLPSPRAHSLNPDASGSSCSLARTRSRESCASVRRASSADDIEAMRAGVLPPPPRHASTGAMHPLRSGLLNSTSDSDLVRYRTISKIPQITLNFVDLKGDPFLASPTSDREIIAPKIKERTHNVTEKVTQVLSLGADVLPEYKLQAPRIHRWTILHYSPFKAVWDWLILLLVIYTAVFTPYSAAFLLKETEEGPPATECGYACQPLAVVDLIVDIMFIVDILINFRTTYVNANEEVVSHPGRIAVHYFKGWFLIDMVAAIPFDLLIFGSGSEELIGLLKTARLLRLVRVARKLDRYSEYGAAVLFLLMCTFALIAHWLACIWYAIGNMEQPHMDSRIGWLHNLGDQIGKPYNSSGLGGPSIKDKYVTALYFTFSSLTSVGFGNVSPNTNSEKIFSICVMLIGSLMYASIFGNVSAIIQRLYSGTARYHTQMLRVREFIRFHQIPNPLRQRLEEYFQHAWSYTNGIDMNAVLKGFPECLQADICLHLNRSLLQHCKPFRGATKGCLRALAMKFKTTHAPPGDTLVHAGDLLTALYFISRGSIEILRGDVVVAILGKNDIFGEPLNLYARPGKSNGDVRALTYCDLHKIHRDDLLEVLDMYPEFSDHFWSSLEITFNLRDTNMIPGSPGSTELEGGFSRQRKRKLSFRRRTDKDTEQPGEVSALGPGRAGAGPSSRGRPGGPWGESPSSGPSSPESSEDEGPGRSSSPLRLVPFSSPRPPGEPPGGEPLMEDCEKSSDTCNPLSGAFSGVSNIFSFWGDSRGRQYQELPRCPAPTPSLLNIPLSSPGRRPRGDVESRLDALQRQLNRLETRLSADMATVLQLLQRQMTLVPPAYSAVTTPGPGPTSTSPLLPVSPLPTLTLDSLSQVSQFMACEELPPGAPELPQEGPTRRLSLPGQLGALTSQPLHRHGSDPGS
Chain of 5-hydroxytryptamine receptor 2A (Macaca mulatta, UniProt P50128) (P50128 whole entry): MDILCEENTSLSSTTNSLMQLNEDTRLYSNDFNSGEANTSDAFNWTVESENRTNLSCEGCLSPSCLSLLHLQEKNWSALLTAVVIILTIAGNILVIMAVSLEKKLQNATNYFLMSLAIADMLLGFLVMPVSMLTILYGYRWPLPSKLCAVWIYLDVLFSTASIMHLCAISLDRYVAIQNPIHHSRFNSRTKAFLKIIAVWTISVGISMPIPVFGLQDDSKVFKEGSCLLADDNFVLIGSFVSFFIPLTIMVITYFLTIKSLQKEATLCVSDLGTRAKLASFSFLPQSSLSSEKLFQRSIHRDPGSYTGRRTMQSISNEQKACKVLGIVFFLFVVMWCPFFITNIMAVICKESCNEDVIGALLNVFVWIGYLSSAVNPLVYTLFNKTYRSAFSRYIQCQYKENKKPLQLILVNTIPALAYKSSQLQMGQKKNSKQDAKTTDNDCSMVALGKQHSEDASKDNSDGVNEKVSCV

Compound: Cn1cc(Cl)c(C(=O)N2CCN(CC(=O)c3ccc(F)cc3)CC2)n1
- pKi [1]: 5.85
- Cmax [2]: 1040 ng/mL
- AUC(0-t) [3]: 1180 ng·h/mL
- clearance [4]: 93.3 mL/min/kg
- concentration at 0.75 h [5]: 23.3 ng/mL
- concentration at 0.75 h [6]: 19.6 ng/mL
- Kp at 0.75 h [7]: 1.18
- Kp at 0.75 h [8]: 1.18
- inhibition [9]: Active
- inhibition (INH) [10]: Not Active
- inhibition (INH) [11]: Not Active
- inhibition (INH) [12]: Not Active
- inhibition (INH) [13]: Not Active
- inhibition (INH) [14]: Not Active
- Activity [15]: Active
- Activity [16]: Active
- Activity [17]: Dose-dependent effect
- pKi [18]: 8.77
- pKi [19]: 8.57
- pKi [20]: 8.62
- fraction unbound [21]: 0.39
- fraction unbound [22]: 0.49
- Cmax [23]: 718 ng/mL
- AUC(0-t) [24]: 459 ng·h/mL
- half-life [25]: 0.5 h
- clearance [26]: 93.3 mL/min/kg
- Vdss [27]: 1.7 L/kg
- bioavailability [28]: 87%
- half-life [29]: 2 h
- Vdss [30]: 1.7 L/kg
- bioavailability [31]: 67%
- Cmax [32]: 1260 ng/mL
- AUC(0-t) [33]: 2940 ng·h/mL
- half-life [34]: 5.2 h
- clearance [35]: 15 mL/min/kg
- Vdss [36]: 1.9 L/kg
- bioavailability [37]: 94%
- Cmax [38]: 600 ng/mL
- AUC(0-t) [39]: 872 ng·h/mL
- half-life [40]: 0.6 h
- clearance [41]: 15 mL/min/kg
- Vdss [42]: 0.4 L/kg
- bioavailability [43]: 26%
- MTD [44]: 300 mg/kg
- MTD [45]: 300 mg/kg
- Activity [46]: Toxic
- Activity [47]: Toxic
- Activity [48]: Non-toxic
- Activity [49]: Non-toxic
- Activity [50]: Non-toxic
- Activity [51]: Non-toxic
- pIC50 [52]: 4.52
- pKi [53]: 8.43
